Test system: wheat representing narrow leaf weeds
Test: Bioefficacy, greenhouse spray test with IPA glyphosate + adjuvant
Format: in vivo
Conditions: compared to untreated plant
Procedure: All bioefficacy testing was done at University of Georgia's Agricultural Experiment Station in Griffin, Georgia Concentrates were first formulated by blending IPA glyphosate salt with the desired amount surfactant and water resulting in a 20 wt % ae and a 6.49% surfactant solution. Prior to spraying two sets of diluted solutions were prepared by dissolving 16 g of concentrates into 984 grams of tap water and a second set by dissolving 500 g of the above dilute solution into 500 g of tap water. […] All of the plants were placed in a temperature controlled greenhouse and measured for growth (or lack of) each week for a period of 4 weeks. The data is reported as % Growth Control compared to untreated plant. The higher the value the better the bioefficacy. When the last measurement was taken at 4 weeks the plants are cut at the roots and the “fresh” weight measured.
Testing in the foregoing manner yielded the following results: • Plant Species—Wheat • IPA-glyphosate application rate—300 g a.e./H
• Plant Species—Wheat • IPA-glyphosate application rate—600 g a.e./H

O=C(O)CNCP(=O)(O)O [IPA-Glyphosate only, N-phosphonomethylglycine]
% Growth Control (IPA-glyphosate application rate 300 g a.e./H): 31% | % Growth Control (IPA-glyphosate application rate 600 g a.e./H): 72%
